Where “and” joins values, the source holds several entries; their conditions need not be identical. Equal entries are not always repeated. Structures can show the parent of a compound that is named as a salt.
Columns and labels:
whole blood = assay: Comparison of ADVIA 120 haematology results in anticoagulated blood; assay type: cell-based, human; conditions: Table 2, Mean (+/-S.E.) at 30 minutes, 7 control samples
Description: (§1) Whole blood samples were taken into Vacutainer™ containers that contained either K3EDTA, or CTAD, or a mixture of K3EDTA and CTAD (E/C). For the latter, blood was collected first into K3EDTA and then immediately transferred to a Vacutainer™ containing CTAD. Samples were held at ambient temperature, analysed immediately and at 30, 60, 120, and 180 min after venesection. Analysis of platelet count (PLT), mean platelet volume (MPV) and mean platelet component concentration (MPC) was done using the ADVIA®120 haematology system (Bayer Corporation, Tarrytown, N.Y.) Platelet counts made in blood anticoagulated with CTAD and E/C were corrected for dilution (dilution factors were 1.11 and 1.125 respectively). The system was calibrated and standardised prior to use with ADVIA®-SETpoint Haematology Control and ADVIA® OPTIpoint, respectively (Bayer Corporation). In one series of experiments (n=4) these analyses were performed on blood samples anticoagulated with E/C but held at ambient temperature and at 4° C. to investigate the effect of cooling on platelet activation.

platelets in whole blood [1] = assay: Assessment of platelet activation on the ADVIA 120 (PLT, MPV, MPC, PCDW, MPM); assay type: cell-based, human; conditions: for Platelet count in blood: CTAD and E/C corrected for dilution; for Platelet counts in blood: Example 3 Table 1, ambient temperature, mean of 7
Description: Assessment of platelet activation on the ADVIA 120. Whole blood samples were taken into Vacutainer™ containers (Becton Dickinson) containing either EDTA, CTAD, or a mixture of EDTA and CTAD (E/C). Samples were analysed immediately post-venesection and at timed intervals of 30, 60, 120, and 180 minutes post venesection. Analysis of platelet count (PLT), mean platelet volume (MPV), mean platelet component (MPC) and mean platelet component distributionwidth (PCDW) was performed using the ADVIA 120 Haematology System (Bayer Corporation, Tarrytown, N.Y.) calibrated prior to use with ADVIA TESTpoint Haematology Control reagents. (Bayer Corporation, Tarrytown, N.Y.).
Whole blood samples were taken into Vacutainer™ containers (Becton Dickinson) containing EDTA and mixed with the aforementioned platelet antagonists, or with CTAD (this mixture is referred to as E/C). Samples were analysed as in Example 1.
as §1

platelets in whole blood [2] = assay: Expression of CD62P on platelets by flow cytometry; assay type: cell-based, human; conditions: for CD62P % expression in blood: Example 1, n=6, mean±se; for CD62P % positive platelets in blood: Example 3, at RT
Description: (§2) Measurement of the expression CD62P and the number of leucocyte platelet aggregates (PLAs). Anti-coagulated blood (5 μl) was incubated at room temperature with either FITC CD62P (5 μl) or FITC isotype control (5 μl), or PE CD45 (5 μl) and FITC isotype control (5 μl) or FITC CD42a (5 μl) and PE CD45 (5 μl), in 90 μl of TS for 5 min. Samples were diluted to 1 ml with TS and analysed immediately by flow cytometry.
(§3) Flow cytometry. Blood cells were analysed on a FACScan (Becton Dickinson, Oxford, UK) equipped with CellQuest® software. The flow cytometer was calibrated prior to use with fluorochrome labelled beads (Fluorospheres™, Dako).
For the analysis of CD62P expression data was acquired in real time with a primary gate set on a dual parameter histogram of forward light scatter (FLS) logarithmic scale (abscissa) and side light scatter (SLS) logarithmic scale (ordinate). This facilitated identification of the platelets within the blood and was confirmed by the analysis of CD42a expression (FIG. 1). Background fluorescence was assessed with platelets labelled with the FITC conjugated isotype control antibody. Cursors were set in a single parameter histogram of frequency (ordinate) and green fluorescence intensity (abscissa), so that less than 1% of the platelets stained positively with the control antibody. Changes in CD62P expression (green fluorescence logarithmic scale), together with those of FLS and SLS, were then recorded on the gated platelets.

platelets [3] = conditions: room temperature; on average; Threatte et al., 1984; cited from earlier work
[4] = test system: platelet leucocyte aggregates in whole blood; assay: Platelet-leucocyte aggregates (PLAs) by flow cytometry; assay type: cell-based, human
Description: as §2, §3
For the analysis of platelet-leucocyte aggregates (FIG. 2), cells were analysed in a histogram of side scatter (logarithmic scale ordinate) and orange fluorescence (logarithmic scale abscissa). Leucocytes identified by their positive staining with PE CD45 were gated to a histogram of green fluorescence (logarithmic scale ordinate) and orange fluorescence (logarithmic scale abscissa). Events that were both green and orange were considered platelet leucocyte aggregates and recorded as a percentage of a total of 10,000 gated leucocytes.
As Example 1. Platelet-leucocyte aggregates could then be gated to a histogram (C) of side scatter (logarithmic scale ordinate) and orange fluorescence (logarithmic scale abscissa) to identify, by their characteristic SLS, which leucocytes were forming PLAs.

platelets [5] = conditions: over a period of 1–2 h; impedance procedures; depends on sodium citrate concentration; cited from earlier work
[6] = Example 1, 30 min, n=6, mean±se
[7] = Example 1, 60 min, n=6, mean±se
[8] = Example 1, 120 min, n=6, mean±se
[9] = Example 1, 180 min, n=6, mean±se

O=C(O)CN(CCN(CC(=O)O)CC(=O)O)CC(=O)O [EDTA, Ethylenediaminetetra-acetic acid]
MPC (whole blood): 29.1 (0.52) g/dL | MPV (whole blood): 7.7 (0.27) fL | PCDW (whole blood): 5.00 (0.09) g/dL | PCT (whole blood): 0.19 (0.01) % | PDW (whole blood): 58.9 (3.24) % | PLT (whole blood; CTAD ×1.11, E/C ×1.125): 246 (14) 109/L | Platelet count in blood (platelets in whole blood [1]; Example 1, 0 min, n=6): 235±12 | MPC in blood (platelets in whole blood [1]; Example 1, 0 min, n=6, mean±se): 28.0 ± 0.87 g/dL | MPV in blood (platelets in whole blood [1]; Example 1, 0 min, n=6, mean±se): 8.0 ± 0.37 fL | PCDW in blood (platelets in whole blood [1]; Example 1, 0 min, n=6, mean±se): 5.85 ± 0.28 g/dL | Platelet count in blood (platelets in whole blood [1]; Example 1, 30 min, n=6): 246 ± 14 | MPC in blood (platelets in whole blood [1]; [6]): 29.1 ± 0.52 g/dL | MPV in blood (platelets in whole blood [1]; [6]): 7.7 ± 0.27 fL | PCDW in blood (platelets in whole blood [1]; [6]): 5.00 ± 0.09 g/dL | Platelet count in blood (platelets in whole blood [1]; Example 1, 60 min, n=6): 249 ± 14 | MPC in blood (platelets in whole blood [1]; [7]): 28.8 ± 0.42 g/dL | MPV in blood (platelets in whole blood [1]; [7]): 7.7 ± 0.24 fL | PCDW in blood (platelets in whole blood [1]; [7]): 5.00 ± 0.12 g/dL | Platelet count in blood (platelets in whole blood [1]; Example 1, 120 min, n=6): 247 ± 14 | MPC in blood (platelets in whole blood [1]; [8]): 27.9 ± 0.48 g/dL | MPV in blood (platelets in whole blood [1]; [8]): 8.0 ± 0.30 fL | PCDW in blood (platelets in whole blood [1]; [8]): 4.80 ± 0.11 g/dL | Platelet count in blood (platelets in whole blood [1]; Example 1, 180 min, n=6): 246 ± 5 | MPC in blood (platelets in whole blood [1]; [9]): 27.1 ± 0.36 g/dL | MPV in blood (platelets in whole blood [1]; [9]): 8.1 ± 0.21 fL | PCDW in blood (platelets in whole blood [1]; [9]): 4.80 ± 0.08 g/dL and 4.80 ± 0.06 g/dL | MPC in blood (platelets in whole blood [1]; Example 3, at RT, 0 min): 2.8e-12 ± 8.7e-14 g/dL | MPV in blood (platelets in whole blood [1]; Example 3, at RT, 0 min): 8.0 ± 0.37 fL | MPC in blood (platelets in whole blood [1]; Example 3, at RT, 30 min): 2.91e-12 ± 5.2e-14 g/dL | MPV in blood (platelets in whole blood [1]; Example 3, at RT, 30 min): 7.7 ± 0.27 fL | MPC in blood (platelets in whole blood [1]; Example 3, at RT, 60 min): 2.88e-12 ± 4.2e-14 g/dL | MPV in blood (platelets in whole blood [1]; Example 3, at RT, 60 min): 7.7 ± 0.24 fL | MPC in blood (platelets in whole blood [1]; Example 3, at RT, 120 min): 2.79e-12 ± 4.8e-14 g/dL | MPV in blood (platelets in whole blood [1]; Example 3, at RT, 120 min): 8.0 ± 0.30 fL | MPC in blood (platelets in whole blood [1]; Example 3, at RT, 180 min): 2.71e-12 ± 3.6e-14 g/dL | MPV in blood (platelets in whole blood [1]; Example 3, at RT, 180 min): 8.1 ± 0.21 fL | Platelet counts in blood (platelets in whole blood [1]; 0 min): 235 ± 13 | Platelet counts in blood (platelets in whole blood [1]; 30 min): 246 ± 14 | Platelet counts in blood (platelets in whole blood [1]; 180 min): 246 ± 5 | CD62P % expression in blood (platelets in whole blood [2]; 0 min post venesection): 1.10 ± 0.24% | CD62P % expression in blood (platelets in whole blood [2]; 30 min): 3.71 ± .04% | CD62P % expression in blood (platelets in whole blood [2]; 60 min): 11.27 ± .60% | CD62P % expression in blood (platelets in whole blood [2]; 120 min): 18.94 ± 2.53% | CD62P % expression in blood (platelets in whole blood [2]; 180 min): 23.05±2.79% | CD62P % positive platelets in blood (platelets in whole blood [2]; 0 min): 1.10 ± 0.24% | CD62P % positive platelets in blood (platelets in whole blood [2]; 0 min, listed as K3EDTA): 1.10±0.61% | CD62P % positive platelets in blood (platelets in whole blood [2]; 30 min): 3.71 ± 1.04% | CD62P % positive platelets in blood (platelets in whole blood [2]; 60 min): 11.27 ± 1.60% | CD62P % positive platelets in blood (platelets in whole blood [2]; 120 min): 18.94 ± 2.53% | CD62P % positive platelets in blood (platelets in whole blood [2]; 180 min): 23.05 ± 2.79% | CD62P % positive platelets in blood (platelets in whole blood [2]; 180 min, listed as K3EDTA): 23.05±1.54% | MPV greater than in corresponding citrate anticoagulated blood (platelets [3]): 23% | % platelet leucocyte aggregates in blood ([4]; Example 1, 0 min, n=6, mean±se): 3.50±0.50% | % platelet leucocyte aggregates in blood [4, 6]: 4.16 ± 0.86% | % platelet leucocyte aggregates in blood [4, 7]: 8.87 ± 1.54% | % platelet leucocyte aggregates in blood [4, 8]: 8.50 ± 1.44% | % platelet leucocyte aggregates in blood [4, 9]: 13.50±2.41% | % platelet leucocyte aggregates in blood ([4]; Example 3, at RT, 0 min): 3.30 ± 0.5% | % platelet leucocyte aggregates in blood ([4]; Example 3, at RT, 0 min, listed as K3EDTA): 3.50±0.71% | % platelet leucocyte aggregates in blood ([4]; Example 3, at RT, 30 min): 4.16 ± 0.86% | % platelet leucocyte aggregates in blood ([4]; Example 3, at RT, 60 min): 8.87 ± 1.54% | % platelet leucocyte aggregates in blood ([4]; Example 3, at RT, 120 min): 8.50 ± .44% | % platelet leucocyte aggregates in blood ([4]; Example 3, at RT, 180 min): 13.50 ± 1.74% | % platelet leucocyte aggregates in blood ([4]; Example 3, at RT, 180 min, listed as K3EDTA): 13.50±1.74%

O=C(O)CC(O)(CC(=O)O)C(=O)O [citrate, trisodium citrate]
increase in platelet volume (platelets [5]): 3–10%

From patent US7011938B2, “Method of measuring platelet activation” (Barts and The London NHS Trust, priority 2000, dated 2006)
